The nature of this series: Crystal form stability test (preservation, then powder X-ray diffraction and content). The series is classed as physicochemical. As for the experimental part: Using high-speed imaging plate X-ray diffraction system (R-AXIS VII) manufactured by Rigaku Corporation, X-ray diffraction data of the crystals of the compound of the formula (1) were measured at −180° C. with a CuK α radiation (50 kV, 90 mA, λ=1.5418 Å). A sample was filled in a glass capillary having an inner diameter of 0.7 mm. The diffraction images were collected under the conditions a camera length of 300 mm, an oscillation angle of 40°, and an exposure time of 45 minutes. A contour integration treatment of the diffraction image was carried out by an R-AXIS display software available from Rigaku Corporation (integration range: 45 to 135°). The maximum value of the obtained integrated intensity was made 100, relative intensities of the respective integral intensities were calculated, and plotting them based on the diffraction angle 20 to prepare a diffraction pattern. With regard to the crystals of the compounds of the formula (1), these were preserved under the following mentioned temperature and humidity conditions, and then powder X-ray diffractions were measured. […] Term: 12 months Preservation condition: 25±2° C./[…] Packaging form: Polyethylene double bag/fiber drum Term: 6 months Preservation condition: 40±2° C./75±5% RH* *: RH: relative humidity Packaging form: Polyethylene double bag/fiber drum

[1] abbreviates: Test 1, 25° C./60% RH, at starting.
Where [2] appears, read: Test 1, 25° C./60% RH, preservation period 3 months.
Where [3] appears, read: Test 1, 25° C./60% RH, preservation period 6 months.
[4] abbreviates: Test 1, 25° C./60% RH, preservation period 9 months.
Where [5] appears, read: Test 1, 25° C./60% RH, preservation period 12 months.
Where [6] appears, read: Test 2, 40° C./75% RH, preservation period 1 month.
[7] abbreviates: Test 2, 40° C./75% RH, preservation period 3 months.
Where [8] appears, read: Test 2, 40° C./75% RH, preservation period 6 months.

This is an account of results in patent publication US20170233346A1, “CRYSTALLINE ANTI-TRICHOPHYTON AGENTS AND PREPARATION PROCESS THEREOF” (MEIJI SEIKA PHARMA CO., LTD., priority 2014, published 2017).

The structures appear in SMILES notation.

Turning to `Cc1ccc(-n2nc(C)cc2C)c(O)c1` [formula (1), 2-(3,5-dimethyl-1H-pyrazol-1-yl)-5-methylphenol], the “Content (%)” value under setting [1] is on record as “(99.7%)*”; the “Content (%)” value under setting [2] is listed as “(99.9%)*”; the “Content (%)” value under setting [3] was “(98.9%)*”; the “Content (%)” value under setting [4] is “(99.9%)*”; the “Content (%)” value under setting [5] is reported as “(99.0%)*”; the “Content (%)” value under setting [6] is on record as “(100.3%)*”. The “Content (%)” value was “(100.6%)*” under setting [7] and “(100.4%)*” under setting [8]. Moreover, the “Crystal form (powder X-ray diffraction)” value by setting is: under setting [1], “Form A”; under setting [2], “Form A”; under setting [3], “Form A”; under setting [4], “Form A”; under setting [5], “Form A”; under setting [6], “Form A”. The “Crystal form (powder X-ray diffraction)” value is “Form A” under setting [7] and “Form A” under setting [8]. Moreover, the “Change in crystal form after preservation” value (Test 1 and Test 2, either of the measurement times) is recorded as “no change in crystal form was observed”. The “Period over which Form A crystals were extremely stable and high purity” value (even under the accelerated conditions) is recorded as at least 6 months.
